# Measurements reported in patent publication US20030226158A1, “Cds1 knockout cells and mice, and their utilization” (priority 2000, published 2003).
# System: p53 protein
# Experiment: X-ray irradiation-induced p53 protein expression in ES cells, western blotting
# Assay type: cell-based, mouse
# Details: X-ray irradiated, western blotting with antibody against p53
# Protocol: The analysis was done by western blotting.
# ES cell lines in which one or both Cds1 (Chk2) alleles were inactivated (Cds1 (Chk2)+/− and Cds1 (Chk2)−/−) were treated with trypsin and counted. Then, a constant number of ES cells were plated in 6-well plates in which feeder cells had been planted in advance. MEF (mouse embryonic fibroblast) was used as feeder cells. The cells were treated with X ray and cultured in an CO2 incubator for 6 hours. Then, a cell extract was prepared, the proteins were separated by SDS-PAGE, and transferred to a PVDF membrane. p53 protein was quantified by conducting western blotting using an antibody against p53.
compound,measurement,setting,value
Cn1c(=O)c2c(ncn2C)n(C)c1=O [caffeine],induction of p53 expression after irradiation,Cds1-/- ES cells,inhibited
same,induction of p53 expression after irradiation,wild type ES cells,inhibited
